According to patent publication US20120282346A1, “BRIMONIDINE COMPOSITIONS FOR TREATING ERYTHEMA” (priority 2007, published 2012):

System: erythema
Conditions: high dosage gel (0.20% by weight brimonidine tartrate), applied topically each day for 28 days; across all visits (days 1, 14, 28), evaluated up to eight hours; patients with moderate to severe erythema; p<0.001
Protocol: A double-blind, placebo-controlled study was conducted at six centers of 110 patients with moderate to severe erythema. […] On days 1, 14, and 28, patients applied the gel under the supervision of clinical staff in the study centers, and were evaluated at set intervals for up to eight hours.
Evaluation led to a Clinician's Erythema Assessment Score (CEA). Each patients' erythema was rated on a scale from 0 to 4, with 0 being the rating for no erythema and 4 being the rating for extreme erythema.
Also, a side effect profile was established.

How did the “reduction in the average CEA (Clinician's Erythema Assessment Score, scale 0 to 4)” value turn out when Brc1c(N=C2NCCN2)ccc2nccnc12.O=C(O)C(O)C(O)C(=O)O [brimonidine tartrate, 5-bromo-6-(2-imidazolidinylideneamino) quinoxaline L-tartrate] was run?
The value was “statistically significant reduction”.
